The text below walks through data of US10076567B2, “MPER-liposome conjugates and uses thereof” (Duke University, priority 2013, dated 2018).

Assay [1] has as its system 2F5 mAb. Kind of assay: SPR binding of 2F5 mAb to MPER peptide-liposomes with TLR adjuvants. How it is done:
FIGS. 10A-10C. Interaction of 2F5 mAb with MPER peptide-liposomes conjugated to TLR adjuvants.
FIG. 21 Binding of BNAb 2F5 and 4E10 to MPER peptide-liposomes described in FIGS. 19-20. Synthetic MPER peptide-liposomes complexed to the indicated MPER peptide and TLR adjuvants (R848, Lipid A) were anchored on a BIAcore sencor ship (L1) and each mAb (2 μg/mL) injected over the surface. Binding shown is after subtraction of non-specific signal measured on a control liposome surface.

The test system of assay [2] is 2F5 mAb. To be noted: for 2F5 mAb binding response: background subtracted, 10 seconds after the injection was stopped, peptides anchored to liposomes. As to the method: FIGS. 6A and 6B. […] FIG. 6A. […] FIG. 6B.
SPR binding assays were performed on a BIAcore 3000 (BIAcore Inc, Piscattaway, N.J.) maintained at 20° C. as previously described (Alam et al, J. Immunol. 178:4424-4435 (2007)). […] Specific binding responses of mAb binding were obtained following subtraction of non-specific binding on the scrambled 2F5 peptide surface.

The next assay relates to Immunogen Peptides. Nature of the assay: NHP#91 Week 14 plasma binding to immunogen peptides by ELISA. The class given is in vivo, Rhesus macaques. To be noted: NHP#91, Week 14, ELISA log AUC. The source says: (§1) Rhesus macaques were immunized in 5 groups for NHP#87 with the different MPER peptide liposomes. Group 5 animals were immunized with a swarm of all of the MPER peptide liposomes. 4 animals per group. NHP#91 was a study to compare two adjuvants. Group 1 had MPLA alone and Group2 had R848 alone. The immunogen for both groups was the original MPER656 peptide liposome. The idea was to compare group 1 and 2 from this study to group 4 from NHP#87 where the animals received both MPLA and R848.
NHP#91 and last group (656+MPLA+R848) is group 4 of NHP#87; Isolated plasma at Week 14 was screened for binding to each immunogen by ELISA. Plotted is the log area under the curve for binding for each individual monkey separated by group. Solid line indicates the average log AUC for each group.

Another assay has as its system MPER-Specific Proteins. Nature of the assay: NHP#91 Week 14 plasma binding to MPER-specific proteins by ELISA. The class given is in vivo, Rhesus macaques. To be noted: NHP#91, Week 14, ELISA log AUC.
From the text: as §1
NHP#91 and last group (656+MPLA+R848) is group 4 of NHP#87 (for all panels pre-immune substracted); Isolated plasma at Week 14 was screened for binding to each immunogen by ELISA. Plotted is the log area under the curve for binding for each individual monkey separated by group. Solid line indicates the average log AUC for each group.
For orientation: An ELISA detects its analyte on a solid surface through an enzyme-linked reagent.

“NEKDLLALDSWKNLWNWFSITKWLWYIK [MPER656.2]”: the “binding of 2F5 mAb to peptide-liposome construct” value in the assay with 2F5 mAb [1] is on record as “lack of binding”.

“QQEKNEQELLELDKWASLWNYKRWIILGLNKIVRMYS-biotin [consensus 2F5 epitope]”: the “2F5 mAb binding response” value with 2F5 mAb [2] was found to be 494.6 response unit.

As for Monophosphoryl Lipid A [MPLA], the “plasma binding to immunogen peptides, adjuvant comparison” value in the assay on Immunogen Peptides is reported as “better than R848”. For the same substance, in the assay with MPER-Specific Proteins, the “plasma binding to MPER-specific proteins, adjuvant comparison” value is recorded as “better than R848”.

As to “QQEKNEQELLELDKWASSWNYKRWIILGLNKIVRMYS-biotin”, in the assay on 2F5 mAb [2], the “off-rate of the mAb 2F5-peptide liposome complex” value was “significantly slower off-rates” and the “2F5 mAb binding response” value turned out to be 616.7 response unit.
